Measured values: patent US12692529B2, “Quantitative screen for the assessment of inter-individual variability in drug metabolism by the human gut microbiome” (The Trustees of Princeton University, priority 2020, dated 2026)

System: ex vivo cultures of donor gut microbiome (BG medium)
Test: Untargeted metabolomics with molecular ion networking for new metabolite discovery in the 20-donor screen
Assay type: in vitro ADME, human
Settings: not given
Description: In order to extract all features in a given sample, a batch recursive feature extraction method for small molecules and peptides within Profinder 8 (Agilent) can be used. The following settings in the method were changed from default: compound ion count threshold set to two ions, alignment retention time tolerance set to 0.2 min, minimum MFE score set to 90, minimum file prevalence set to 2, expected retention time set to ±1 min, retention time contribution to matching score set to 90, expected MS1 mass variation set to 10 ppm, expected retention time tolerance set to 0.2 min, absolute height threshold for EIC integration set to 2500 counts, and final absolute height threshold set to 5000. The resulting feature abundances were then analyzed in MATLAB. Any sample whose internal standard AUC is less than 10^6 was removed. Hypothesis testing was then performed using similar statistical methods as for metabolite production in the targeted metabolomics, except that the multiple hypothesis correction of Storey (Storey, 2002) was used in place of the Benjamini-Hochberg method and require a fold-change cut-off of two relative to all controls. […] All ions already quantified in the screen and all features that are statistically significant for more than one drug are removed. […]

Compound | number of additional metabolites detected by the untargeted metabolomics pipeline
COC(=O)C1=C(C)NC(C)=C(C(=O)OCCN(C)Cc2ccccc2)C1c1cccc([N+](=O)[O-])c1 (stereo not drawn) [nicardipine] | 11

System: ex vivo cultures of donor gut microbiome (BG medium)
Test: MDMQ-Screen 20-donor screen: drug depletion and metabolite production in ex vivo cultures, targeted metabolomics by HPLC-HRMS
Settings: 20 donors, BG medium, drug 33 μM, 24-hour incubation

Compound | MDM (microbiome-derived metabolism) across donors
CC(=O)N1CCN(c2ccc(OCC3COC(Cn4ccnc4)(c4ccc(Cl)cc4Cl)O3)cc2)CC1 (stereo not drawn) [ketoconazole] | consistently negative
CCCN(CCC)CCc1cccc2c1CC(=O)N2 [ropinirole] | consistently negative
Cc1cccc(Nc2ccncc2S(=O)(=O)NC(=O)NC(C)C)c1 [torsemide] | consistently negative

Same assay, conditions: 20 donors, BG medium, drug 33 μM, 24-hour incubation; significant if FDR p<0.01 and depletion >50% vs controls

Compound | MDM in drug depletion across donors
CCCCC(C)(O)C/C=C/[C@H]1[C@H](O)CC(=O)[C@@H]1CCCCCCC(=O)OC (mixture of isomers) [misoprostol] | consistently positive
CCCCCOC(=O)Nc1nc(=O)n([C@@H]2O[C@H](C)[C@@H](O)[C@H]2O)cc1F [capecitabine] | variable
CC(C)/N=c1\cc2n(-c3ccc(Cl)cc3)c3ccccc3nc-2cc1Nc1ccc(Cl)cc1 [clofazimine] | variable
O=C1CN=C(c2ccccc2Cl)c2cc([N+](=O)[O-])ccc2N1 [clonazepam] | consistently positive
C[C@]12CCC(=O)C=C1CC[C@@H]1[C@@H]2[C@@H](O)C[C@@]2(C)[C@H]1CC[C@]2(O)C(=O)CO [hydrocortisone] | variable
C#C[C@]1(O)CC[C@H]2[C@@H]3CCC4=CC(=O)CC[C@@H]4[C@H]3CC[C@@]21CC [levonorgestrel] | variable
CC[C@H](C)C(=O)O[C@H]1C[C@@H](C)C=C2C=C[C@H](C)[C@H](CC[C@@H]3C[C@@H](O)CC(=O)O3)[C@H]21 [lovastatin] | variable
COc1c(C)c2c(c(O)c1C/C=C(\C)CCC(=O)OCCN1CCOCC1)C(=O)OC2 [mycophenolate mofetil] | variable
Cc1nc2n(c(=O)c1CCN1CCC(c3noc4cc(F)ccc34)CC1)CCCC2 [risperidone] | consistently positive
CC(=O)S[C@@H]1CC2=CC(=O)CC[C@]2(C)[C@H]2CC[C@@]3(C)[C@@H](CC[C@@]34CCC(=O)O4)[C@H]12 [spironolactone] | consistently positive
CC1=C(CC(=O)O)c2cc(F)ccc2/C1=C\c1ccc([S+](C)[O-])cc1 (stereo not drawn) [sulindac] | variable
O=C(CCCCCCC(=O)Nc1ccccc1)NO [vorinostat] | variable

Same assay, conditions: 20 donors, BG medium, drug 33 μM, 24-hour incubation; significant if FDR p<0.01 vs all three controls

Compound | MDM in metabolite production across donors
CCCCCOC(=O)Nc1nc(=O)n([C@@H]2O[C@H](C)[C@@H](O)[C@H]2O)cc1F [capecitabine] | variable
CC(C)/N=c1\cc2n(-c3ccc(Cl)cc3)c3ccccc3nc-2cc1Nc1ccc(Cl)cc1 [clofazimine] | variable
O=C1CN=C(c2ccccc2Cl)c2cc([N+](=O)[O-])ccc2N1 [clonazepam] | consistently positive
CC[C@H](C)C(=O)O[C@H]1C[C@@H](C)C=C2C=C[C@H](C)[C@H](CC[C@@H]3C[C@@H](O)CC(=O)O3)[C@H]21 [lovastatin] | variable
COc1c(C)c2c(c(O)c1C/C=C(\C)CCC(=O)OCCN1CCOCC1)C(=O)OC2 [mycophenolate mofetil] | variable
CC(=O)S[C@@H]1CC2=CC(=O)CC[C@]2(C)[C@H]2CC[C@@]3(C)[C@@H](CC[C@@]34CCC(=O)O4)[C@H]12 [spironolactone] | variable
CC1=C(CC(=O)O)c2cc(F)ccc2/C1=C\c1ccc([S+](C)[O-])cc1 (stereo not drawn) [sulindac] | variable
Cc1ccc(C(=O)c2cc(O)c(O)c([N+](=O)[O-])c2)cc1 [tolcapone] | consistently positive

Same assay, conditions: after inclusion of 11 additional metabolites; FDR corrected p=0.0102

Compound | Pearson correlation coefficient of drug depletion and metabolite production after inclusion of metabolites discovered by untargeted metabolomics
COC(=O)C1=C(C)NC(C)=C(C(=O)OCCN(C)Cc2ccccc2)C1c1cccc([N+](=O)[O-])c1 (stereo not drawn) [nicardipine] | −0.6

Same assay, conditions: all donor-drug ex vivo samples; known (quantified) metabolites only

Compound | Pearson correlation coefficient of drug signal and sum of known metabolite signals (drug depletion vs metabolite production)
COC(=O)C1=C(C)NC(C)=C(C(=O)OCCN(C)Cc2ccccc2)C1c1cccc([N+](=O)[O-])c1 (stereo not drawn) [nicardipine] | −0.22
O=C(CCCCCCC(=O)Nc1ccccc1)NO [vorinostat] | −0.91
